Reference: ChEMBL document CHEMBL1201862, “PubChem BioAssay data set” (2004)
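Step 1: Grow cells in 96-well plates. Step 2: Expose to compound for 48 hours at 5 concentrations. Step 3: Interpolate endpoints linearly; if unreached, use highest concentration. Abbreviation: GI50, concentration required for 50% inhibition of growth.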 Active and inactive are the calls of the source. No stated cut-off is given here; in the data, active = GI50 up to about 1.1 µM and inactive = higher.

What was measured:
Assay in all cases: inhibition of tumour cell growth, NCI panel, 48 h
OVCAR-3 = test system: OVCAR-3
A498 = test system: A498
HT-29 = test system: HT-29
786-0 = test system: 786-0
NCI-H460 = test system: NCI-H460
MOLT-4 = test system: MOLT-4
CCRF-CEM = test system: CCRF-CEM
SW-620 = test system: SW-620
RXF 393 = test system: RXF 393
LOX IMVI = test system: LOX IMVI
IGROV-1 = test system: IGROV-1
OVCAR-5 = test system: OVCAR-5
NCI/ADR-RES = test system: NCI/ADR-RES
NCI-H23 = test system: NCI-H23
Hs-578T = test system: Hs-578T
HL-60 = test system: HL-60
UACC-62 = test system: UACC-62
MDA-MB-435 = test system: MDA-MB-435
HCT-116 = test system: HCT-116
MDA-N = test system: MDA-N

| SMILES | GI50 (OVCAR-3) | GI50 (A498) | GI50 (HT-29) | GI50 (786-0) | GI50 (NCI-H460) | GI50 (MOLT-4) | GI50 (CCRF-CEM) | GI50 (SW-620) | GI50 (RXF 393) | GI50 (LOX IMVI) | GI50 (IGROV-1) | GI50 (OVCAR-5) | GI50 (NCI/ADR-RES) | GI50 (NCI-H23) | GI50 (Hs-578T) | GI50 (HL-60) | GI50 (UACC-62) | GI50 (MDA-MB-435) | GI50 (HCT-116) | GI50 (MDA-N) |
| --- | --- | --- | --- | --- | --- | --- | --- | --- | --- | --- | --- | --- | --- | --- | --- | --- | --- | --- | --- | --- |
| CN(C)CCCc1c2ccccc2nc2ccc(Cl)cc12 | 24.8 µM (inactive) | 19.2 µM (inactive) | 13.2 µM (inactive) | 11.7 µM (inactive) | 12.1 µM (inactive) | 17.9 µM (inactive) | 9.16 µM (inactive) | 12.9 µM (inactive) | 14.1 µM (inactive) | 14.2 µM (inactive) | 16.4 µM (inactive) | 15.2 µM (inactive) | 21.9 µM (inactive) | 30.3 µM (inactive) | 16.5 µM (inactive) | 16 µM (inactive) | 18 µM (inactive) | 13.3 µM (inactive) | 10.9 µM (inactive) |  |
| O=C(/C=C/c1ccccc1)/C=C/c1ccccc1 | 23 µM (inactive) | > 100 µM (inactive) | 17.8 µM (inactive) | 30.3 µM (inactive) | 27.5 µM (inactive) | 20.7 µM (inactive) | 36.9 µM (inactive) | 17.4 µM (inactive) | 34.4 µM (inactive) | 16.8 µM (inactive) | 28.1 µM (inactive) | > 100 µM (inactive) |  | 29.7 µM (inactive) |  | 23.2 µM (inactive) | 33 µM (inactive) |  | 17.3 µM (inactive) |  |
| Nn1c(CCCCCCCCc2nnc(COc3ccc(Cl)cc3Cl)n2N)nnc1COc1ccc(Cl)cc1Cl |  | 45.3 µM (inactive) | 29.1 µM (inactive) | 63.5 µM (inactive) | 63.8 µM (inactive) | 20 µM (inactive) |  | > 100 µM (inactive) | 38.5 µM (inactive) |  | 6.43 µM (inactive) | 35.6 µM (inactive) | 31.1 µM (inactive) | 38 µM (inactive) |  |  | 38.6 µM (inactive) | 48.3 µM (inactive) | 16.7 µM (inactive) | 62.5 µM (inactive) |
| Brc1ccc2c(c1)C1=C(CO2)Cc2ccccc2O1 | 16.2 µM (inactive) | 27.4 µM (inactive) | 23.3 µM (inactive) | 22.7 µM (inactive) |  | 20 µM (inactive) | 39.4 µM (inactive) | 23.4 µM (inactive) |  | 17.4 µM (inactive) | 12.4 µM (inactive) | 19.1 µM (inactive) | 23 µM (inactive) | 16.3 µM (inactive) |  |  | 17.2 µM (inactive) | 16.9 µM (inactive) | 16.4 µM (inactive) | 13.2 µM (inactive) |
| C=CCN(Cc1ccncc1)C(=O)C(O)(c1ccccc1)c1ccccc1 | 50.6 µM (inactive) |  | 59.3 µM (inactive) | > 100 µM (inactive) |  | 27.8 µM (inactive) | 35.8 µM (inactive) | > 100 µM (inactive) | > 100 µM (inactive) | 97.9 µM (inactive) | > 100 µM (inactive) | > 100 µM (inactive) | 17.7 µM (inactive) | 54.3 µM (inactive) |  | 35.3 µM (inactive) | 39.1 µM (inactive) | 17.3 µM (inactive) | 48.2 µM (inactive) | 45.8 µM (inactive) |
| CNC(=O)N1CN(c2ccccc2)C2(CCN(Cc3ccccc3)CC2)C1=O | > 100 µM (inactive) |  | 15.6 µM (inactive) | > 100 µM (inactive) |  | 14.2 µM (inactive) | 53.5 µM (inactive) | 46.1 µM (inactive) | > 100 µM (inactive) | 50.5 µM (inactive) | 5 µM (inactive) | 1.05 µM (active) | 12.2 µM (inactive) | > 100 µM (inactive) |  | 43.1 µM (inactive) | 69.8 µM (inactive) |  | 24.9 µM (inactive) | 29.2 µM (inactive) |
| C=C(CCCCC)CN1CCCC1[C@@](C)(O)CC(=O)OCC (stereo not given in full) | > 100 µM (inactive) | > 100 µM (inactive) | > 100 µM (inactive) | > 100 µM (inactive) | > 100 µM (inactive) | 90.2 µM (inactive) | > 100 µM (inactive) | > 100 µM (inactive) | > 100 µM (inactive) | > 100 µM (inactive) | > 100 µM (inactive) | > 100 µM (inactive) |  | > 100 µM (inactive) |  | 28.6 µM (inactive) | > 100 µM (inactive) |  | > 100 µM (inactive) |  |
| CC(=O)NCCSC(=O)c1ccccc1 | 0.243 µM (active) |  | 0.167 µM (active) | 0.0506 µM (active) | < 0.033 µM (active) | < 0.0176 µM (active) | < 0.0153 µM (active) | 0.0295 µM (active) | 0.112 µM (active) | 0.124 µM (active) | 1.69 µM (inactive) | 0.141 µM (active) | 0.163 µM (active) | 0.0559 µM (active) | 0.479 µM (active) |  | 0.013 µM (active) | 0.18 µM (active) | 0.0488 µM (active) |  |
| CCOC(CCCN1CCC2(CC1)C(=O)N(C)CN2c1ccccc1)(OCC)c1ccc(F)cc1 | 13.6 µM (inactive) |  | 3.49 µM (inactive) | 14.6 µM (inactive) |  | 7.11 µM (inactive) | 4.42 µM (inactive) | 10.4 µM (inactive) | 19.2 µM (inactive) | 16.1 µM (inactive) | 8.41 µM (inactive) | 7.89 µM (inactive) | 13.7 µM (inactive) | 16.6 µM (inactive) |  | 13 µM (inactive) | 16 µM (inactive) |  | 3.82 µM (inactive) | 11.6 µM (inactive) |
| COc1cc(NCc2ccc3nc(OC)c(OC)nc3c2)cc(OC)c1OC | > 100 µM (inactive) | > 100 µM (inactive) | > 100 µM (inactive) | > 100 µM (inactive) | > 100 µM (inactive) | > 100 µM (inactive) | 83.9 µM (inactive) | > 100 µM (inactive) | > 100 µM (inactive) | > 100 µM (inactive) | > 100 µM (inactive) | > 100 µM (inactive) | 42.1 µM (inactive) | > 100 µM (inactive) |  | > 100 µM (inactive) | > 100 µM (inactive) | > 100 µM (inactive) | > 100 µM (inactive) | > 100 µM (inactive) |
| O=C1CCCC2=C1CC1=C(CCCC1=O)N2c1ccccc1 | > 100 µM (inactive) | > 100 µM (inactive) | > 100 µM (inactive) | > 100 µM (inactive) | > 100 µM (inactive) | > 100 µM (inactive) | > 100 µM (inactive) | > 100 µM (inactive) | 40.7 µM (inactive) | > 100 µM (inactive) | > 100 µM (inactive) | > 100 µM (inactive) | > 100 µM (inactive) | > 100 µM (inactive) | > 100 µM (inactive) | > 100 µM (inactive) | > 100 µM (inactive) |  |  |  |
| CCN(CC)/N=N/c1c(C(N)=O)n[nH]c1C | > 100 µM (inactive) | > 100 µM (inactive) | > 100 µM (inactive) | 29.6 µM (inactive) | 31.2 µM (inactive) |  | 18.3 µM (inactive) | 71.3 µM (inactive) | > 100 µM (inactive) | 28.6 µM (inactive) | > 100 µM (inactive) |  | 48.5 µM (inactive) | 36.9 µM (inactive) | 45.9 µM (inactive) |  | 35 µM (inactive) | 77.4 µM (inactive) | > 100 µM (inactive) |  |
